Source: patent US4401430A, “Method of and apparatus for detoxifying mammalian hosts” (priority 1981, dated 1983)
Where a name gives a salt, the structure may show the parent alone. Read-outs that look alike come from different tables or passages of the source.

What was measured:
[1] = system: human albumin; assay: Free chlorpromazine in human albumin solution with ethanol (differential solution pH change); type: in vitro ADME; details: ethanol 0 to 1.0% v/v; room temperature
Description: Chlorpromazine HCl, a tranquilizer, was added to a human albumin solution at room temperature and allowed to equilibrate. Differential solution pH changes, related to free drug concentration, were measured.

[2] = system: human albumin
Description: Imipramine HCl, an antidepressant, was added to a human albumin solution at room temperature and allowed to equilibrate. Differential solution pH changes, related to free drug concentration, were measured. Ethanol concentrations of 0, 0.2, 0.4, 0.6, 0.8 and 1.0% v/v were tested.

[3] = Free drug concentration of thiopental in fresh human plasma with ethanol (thin layer chromatography); type: in vitro ADME; details: ethanol 0 to 1.0% v/v, room temperature
Description: Thiopental was added to fresh human plasma at room temperature and allowed to equilibrate. Thin layer chromatography, used as an indicator of free drug concentration, was compared to thiopental calibrated plates. Ethanol concentrations of 0, 0.1, 0.2, 0.3, 0.4, 0.5, 0.6, 0.7, 0.8 and 1.0% v/v were tested. A maximum free drug concentration occurred at and above 0.6% v/v.

[4] = Thiopental in fresh human plasma with ethanol, equilibrated with coated activated charcoal (uv relative absorbance); type: in vitro ADME
Description: Thiopental was added to fresh human plasma at room temperature and allowed to equilibrate. Relative absorbances, proportional to free drug concentration, were measured spectrophotometrically (uv). Ethanol concentrations of 0, 0.4, 0.7, 1.0, and 1.4% v/v were tested. Drug/plasma and drug/plasma/ethanol solutions were equilibrated with coated activated charcoal.

[5] = system: human albumin; assay: Free thiopental in human albumin solution with sodium lauryl sulfate (differential solution pH change); type: in vitro ADME; details: sodium lauryl sulfate 0, 2, 4, 6, 8, and 10 mg/ml; room temperature
Description: Thiopental was added to a human albumin solution at room temperature and allowed to equilibrate. Differential solution pH changes, related to free drug concentration, were measured.

[6] = Effectiveness as liberating agent for bilirubin (general statement); type: in vitro ADME
Description: (§1) The term "liberating agent" as used herein defines a reagent which when added to a body fluid, increases the ratio of a free soluble chemical to the total content of that chemical in the body fluid. The total content is the aggregate of both the free soluble and bound states of the chemical. More than one physical mechanism can be encountered with the same resultant advantageous partitioning of the target chemical from the bound to the free soluble phase. […] In general, liberating agents as herein defined are useful in body fluids and in vivo.

[7] = less than two percent by volume (% v/v); barbiturates (thiopental, secobarbital, pentobarbital), tricyclics (imipramine, chlorpromazine)
Description: as §1

[8] = Effectiveness as liberating agent for thiopental (general statement); type: in vitro ADME; details: specific drugs such as thiopental
Description: as §1

In the case of CN(C)CCCN1c2ccccc2Sc2ccc(Cl)cc21 [Chlorpromazine HCl], the “free soluble concentration of the drug” value [1] is reported as “increases in free soluble concentration”.

For CN(C)CCCN1c2ccccc2CCc2ccccc21 [Imipramine HCl], the “free soluble drug concentration (differential pH responses)” value [2] was “significant increases in the free soluble drug concentration”.

In the case of CCCC(C)C1(CC)C(=O)NC(=S)NC1=O (centres unmarked) [Thiopental], the “ethanol concentration at and above which maximum free drug concentration occurred” value [3] is reported as ≥ 0.6 % v/v, the “adsorption of the drug by charcoal” value ([4]; 0 to 1.4% v/v ethanol) is reported as “significant increased adsorption of the drug by charcoal” and the “change in relative absorbance” value ([4]; from 0 to 1.4% v/v ethanol) is reported as 13%. For the same compound, the “differential solution pH change” value [5] was “continuous pH change” and the “free soluble drug concentration” value [5] was “increasing free soluble drug concentrations”.

With CC(=O)Oc1ccccc1C(=O)O [acetylsalicylic acid] the “specificity as liberating agent” value [6] was “specific for bilirubin”.

For CCO [ethanol], the “effectiveness as liberating agent” value [7] was “effective”.

For CCCCCCCCCCCC(=O)O [lauric acid], the “effectiveness as liberating agent” value [8] was “effective”.

For CCCCCCCCCCCCS(=O)(=O)[O-].[Na+] [sodium lauryl sulfonate], the “effectiveness as liberating agent” value [8] was “effective”.
